Data taken from patent US20120115845A1, “THERAPEUTIC AGENTS” (priority 2007, published 2012).

What was measured:
human GHS receptor [1] = biological target: T1, human GHS receptor (Homo sapiens, UniProt Q92847); assay: h bind IC50 (binding assay, Table 1); details: human receptor; Table 1
human GHS receptor [2] = biological target: T1, human GHS receptor; assay: Ghrelin IP1 agonist assay (IP1 HTRF); format: cell-based; parameters: expressed in transfected cells; host or cells: HEK293s; details: for Emax: 2 h, agonist effect as % maximal effect of GHRP-6 (5 μM), read-out: h IP1 ag %; for EC50: HEK293s cells stably expressing human GHS receptor, 2 hours at 37° C., read-out: h IP1 ag EC50
Method in brief: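 Cells: HEK293s stably expressing human GHS receptor, in stimulation buffer containing 0.02% fatty acid free BSA.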

T1 sequence (Q92847 whole entry): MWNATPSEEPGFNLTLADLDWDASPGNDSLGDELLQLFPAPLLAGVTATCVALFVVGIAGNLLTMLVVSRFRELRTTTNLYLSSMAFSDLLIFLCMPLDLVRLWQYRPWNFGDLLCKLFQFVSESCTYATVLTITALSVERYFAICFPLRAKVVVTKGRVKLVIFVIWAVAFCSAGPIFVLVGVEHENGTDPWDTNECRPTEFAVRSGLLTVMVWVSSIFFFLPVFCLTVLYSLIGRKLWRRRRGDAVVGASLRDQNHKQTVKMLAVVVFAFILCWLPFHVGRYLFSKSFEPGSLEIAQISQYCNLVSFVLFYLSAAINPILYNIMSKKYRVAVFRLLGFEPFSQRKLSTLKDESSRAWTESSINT

Row | Compound | IC50 (human GHS receptor [1]) | Emax (human GHS receptor [2]) | EC50 (human GHS receptor [2])
1 | O=C(NC(=O)c1ccccc1Cl)Nc1nc2ccc(S(=O)(=O)Cc3ncc[nH]3)cc2s1 [Example 189, 2-Chloro-N-[[6-(1H-imidazol-2-ylmethylsulfonyl)benzothiazol-2-yl]carbamoyl]benzamide] | 274 nM | 20.4% | 280 nM
2 | O=C(NC(=O)c1ccccc1Cl)Nc1nc2ccc(S(=O)(=O)CCc3ccccn3)cc2s1 [Example 190, 2-Chloro-N-[[6-(2-pyridin-2-ylethylsulfonyl)benzothiazol-2-yl]carbamoyl]benzamide] | 51.9 nM | 21.3% | 82.2 nM
3 | Cc1nc(CS(=O)(=O)c2ccc3nc(NC(=O)NC(=O)c4ccccc4Cl)sc3c2)cs1 [Example 191, 2-Chloro-N-[[6-[(2-methyl-1,3-thiazol-4-yl)methylsulfonyl]benzothiazol-2-yl]carbamoyl]benzamide] | 128 nM | 15.5% | 75.2 nM
4 | COCCCS(=O)(=O)c1ccc2nc(NC(=O)NC(=O)c3ccccc3Cl)sc2c1 [Example 192, 2-Chloro-N-[[6-(3-methoxypropylsulfonyl)benzothiazol-2-yl]carbamoyl]benzamide] | 52.4 nM | 23.8% | 51.3 nM
5 | O=C(NC(=O)c1ccccc1Cl)Nc1nc2ccc(S(=O)(=O)CCCn3ccnc3)cc2s1 [Example 193, 2-Chloro-N-[[6-(3-imidazol-1-ylpropylsulfonyl)benzothiazol-2-yl]carbamoyl]benzamide] | 25.9 nM | 30.6% | 18.5 nM
6 | Cc1ccc(F)c(C(=O)NC(=O)Nc2nc3ccc(S(C)(=O)=O)cc3s2)c1Cl [Example 194, 2-Chloro-6-fluoro-3-methyl-N-[(6-methylsulfonylbenzothiazol-2-yl)carbamoyl]benzamide] | 172 nM | 39.4% | 9.52 nM
7 | Cc1ccc(Cl)c(C(=O)NC(=O)Nc2nc3ccc(S(C)(=O)=O)cc3s2)c1F [Example 195, 6-Chloro-2-fluoro-3-methyl-N-[(6-methylsulfonylbenzothiazol-2-yl)carbamoyl]benzamide] | 114 nM | 22.8% | 32.9 nM
8 | C[C@@H]1CN(CCCS(=O)(=O)c2ccc3nc(NC(=O)NC(=O)c4ccccc4Cl)sc3c2)C[C@H](C)N1 [Example 196, 2-Chloro-N-[[6-[3-[(3S,5R)-3,5-dimethylpiperazin-1-yl]propylsulfonyl]benzothiazol-2-yl]carbamoyl]benzamide] | 1.5 nM | 79.4% | 0.934 nM
9 | CCN1CCN(CCCS(=O)(=O)c2ccc3nc(NC(=O)NC(=O)c4ccccc4Cl)sc3c2)CC1 [Example 197, 2-Chloro-N-[[6-[3-(4-ethylpiperazin-1-yl)propylsulfonyl]benzothiazol-2-yl]carbamoyl]benzamide] | 0.4 nM | 55.8% | 2.02 nM
10 | CC(=O)N1CCN(CCCS(=O)(=O)c2ccc3nc(NC(=O)NC(=O)c4ccccc4Cl)sc3c2)CC1 [Example 198, N-[[6-[3-(4-Acetylpiperazin-1-yl)propylsulfonyl]benzothiazol-2-yl]carbamoyl]-2-chloro-benzamide] | 10.8 nM | 32.1% | 11 nM
11 | CC(C)N1CCN(CCCS(=O)(=O)c2ccc3nc(NC(=O)NC(=O)c4ccccc4Cl)sc3c2)CC1 [Example 199, 2-Chloro-N-[[6-[3-(4-propan-2-ylpiperazin-1-yl)propylsulfonyl]benzothiazol-2-yl]carbamoyl]benzamide] | 2.2 nM | 42.2% | 1.82 nM
12 | COCCN1CCN(CCCS(=O)(=O)c2ccc3nc(NC(=O)NC(=O)c4ccccc4Cl)sc3c2)CC1 [Example 200, 2-Chloro-N-[[6-[3-[4-(2-methoxyethyl)piperazin-1-yl]propylsulfonyl]benzothiazol-2-yl]carbamoyl]benzamide] | 2.7 nM | 41.4% | 4.53 nM
13 | CN(C)C1CCN(CCCS(=O)(=O)c2ccc3nc(NC(=O)NC(=O)c4ccccc4Cl)sc3c2)CC1 [Example 201, 2-Chloro-N-[[6-[3-(4-dimethylamino-1-piperidyl)propylsulfonyl]benzothiazol-2-yl]carbamoyl]benzamide] | 0.9 nM | 29.7% | 4.54 nM
14 | CN(C)CCCS(=O)(=O)c1ccc2nc(NC(=O)NC(=O)c3ccccc3Cl)sc2c1 [Example 202, 2-Chloro-N-[[6-(3-dimethylaminopropylsulfonyl)benzothiazol-2-yl]carbamoyl]benzamide] | 8.7 nM | 51.3% | 13.4 nM
15 | COCCNCCCS(=O)(=O)c1ccc2nc(NC(=O)NC(=O)c3ccccc3Cl)sc2c1 [Example 203, 2-Chloro-N-[[6-[3-(2-methoxyethylamino)propylsulfonyl]benzothiazol-2-yl]carbamoyl]benzamide] | 14.9 nM | 29.4% | 6.22 nM
16 | CN1CCCN(CCCS(=O)(=O)c2ccc3nc(NC(=O)NC(=O)c4ccccc4Cl)sc3c2)CC1 [Example 204, 2-Chloro-N-[[6-[3-(4-methyl-1,4-diazepan-1-yl)propylsulfonyl]benzothiazol-2-yl]carbamoyl]benzamide] | 1.2 nM | 36.2% | 6.92 nM
17 | CC(C)(C)OC(=O)N1CCN(CCCS(=O)(=O)c2ccc3nc(NC(=O)NC(=O)c4ccccc4Cl)sc3c2)CC1 [Example 205, tert-Butyl 4-[3-[2-[(2-chlorobenzoyl)carbamoylamino]benzothiazol-6-yl]sulfonylpropyl]piperazine-1-carboxylate] | 5.3 nM | 39.5% | 2 nM
18 | O=C(NC(=O)c1ccccc1Cl)Nc1nc2ccc(S(=O)(=O)CCCN3CCNCC3)cc2s1 [Example 206, 2-Chloro-N-[[6-(3-piperazin-1-ylpropylsulfonyl)benzothiazol-2-yl]carbamoyl]benzamide] | 14.4 nM | 69% | 9.58 nM
19 | CS(=O)(=O)N1CCN(CCCS(=O)(=O)c2ccc3nc(NC(=O)NC(=O)c4ccccc4Cl)sc3c2)CC1 [Example 208, 2-Chloro-N-[[6-[3-(4-methylsulfonylpiperazin-1-yl)propylsulfonyl]benzothiazol-2-yl]carbamoyl]benzamide] | 18.1 nM | 30.7% | 13.5 nM
20 | CC1CN(CCCS(=O)(=O)c2ccc3nc(NC(=O)NC(=O)c4ccccc4Cl)sc3c2)CCN1 (stereo not drawn) [Example 209, 2-Chloro-N-[[6-[3-(3-methylpiperazin-1-yl)propylsulfonyl]benzothiazol-2-yl]carbamoyl]benzamide] | 12.4 nM | 42.2% | 15.4 nM
21 | CN1CCN(CCCCS(=O)(=O)c2ccc3nc(NC(=O)NC(=O)c4ccccc4Cl)sc3c2)CC1 [Example 210, 2-Chloro-N-[[6-[4-(4-methylpiperazin-1-yl)butylsulfonyl]benzothiazol-2-yl]carbamoyl]benzamide] | 2.2 nM | 51.5% | 2.26 nM
22 | CCN(CC)CCCCS(=O)(=O)c1ccc2nc(NC(=O)NC(=O)c3ccccc3Cl)sc2c1 [Example 211, 2-Chloro-N-[[6-(4-diethylaminobutylsulfonyl)benzothiazol-2-yl]carbamoyl]benzamide] | 53.6 nM | 27.7% | 9.58 nM
23 | Cc1ccn(-c2ccc(C(=O)NC(=O)Nc3nc4ccc(S(=O)(=O)CCCN5CCN(C)CC5)cc4s3)c(Cl)c2)n1 [Example 212, 2-Chloro-N-[[6-[3-(4-methylpiperazin-1-yl)propylsulfonyl]benzothiazol-2-yl]carbamoyl]-4-(3-methylpyrazol-1-yl)benzamide] | 0.5 nM | 27.6% | 2.03 nM
24 | CC(C)(C)OC(=O)NC1CC(S(=O)(=O)c2ccc3nc(NC(=O)NC(=O)c4ccccc4Cl)sc3c2)C1 (stereo not drawn) [Example 213, tert-Butyl N-[3-[2-[(2-chlorobenzoyl)carbamoylamino]benzothiazol-6-yl]sulfonylcyclobutyl]carbamate] | 238 nM | 12.9% | 12.5 nM
25 | NC1CC(S(=O)(=O)c2ccc3nc(NC(=O)NC(=O)c4ccccc4Cl)sc3c2)C1 (stereo not drawn) [Example 214, N-[[6-(3-Aminocyclobutyl)sulfonylbenzothiazol-2-yl]carbamoyl]-2-chloro-benzamide] | 32.6 nM | 52.1% | 12.4 nM
26 | CNC1CC(S(=O)(=O)c2ccc3nc(NC(=O)NC(=O)c4ccccc4Cl)sc3c2)C1 (stereo not drawn) [Example 215, 2-Chloro-N-[[6-(3-methylaminocyclobutyl)sulfonylbenzothiazol-2-yl]carbamoyl]benzamide] | 27.2 nM | 50.2% | 23 nM
27 | CN(C)C1CC(S(=O)(=O)c2ccc3nc(NC(=O)NC(=O)c4ccccc4Cl)sc3c2)C1 (stereo not drawn) [Example 216, 2-Chloro-N-[[6-(3-dimethylaminocyclobutyl)sulfonylbenzothiazol-2-yl]carbamoyl]benzamide] | 36.8 nM | 64.6% | 54 nM
28 | CC(C)(C)OC(=O)N1CCC(CS(=O)(=O)c2ccc3nc(NC(=O)NC(=O)c4ccccc4Cl)sc3c2)CC1 [Example 217, tert-Butyl 4-[[2-[(2-chlorobenzoyl)carbamoylamino]benzothiazol-6-yl]sulfonylmethyl]piperidine-1-carboxylate] | 70.4 nM | 36.9% | 118 nM
29 | CC(C)(C)OC(=O)N1CCC(CCS(=O)(=O)c2ccc3nc(NC(=O)NC(=O)c4ccccc4Cl)sc3c2)CC1 [Example 218, tert-Butyl 4-[2-[2-[(2-chlorobenzoyl)carbamoylamino]benzothiazol-6-yl]sulfonylethyl]piperidine-1-carboxylate] | 22.3 nM | 39.2% | 18.5 nM
30 | O=C(NC(=O)c1ccccc1Cl)Nc1nc2ccc(S(=O)(=O)CC3CCNCC3)cc2s1 [Example 219, 2-Chloro-N-[[6-(4-piperidylmethylsulfonyl)benzothiazol-2-yl]carbamoyl]benzamide] | 17.8 nM | 64.5% | 29.3 nM
